From US11261183B2, “Sulfoximine glycosidase inhibitors” (Asceneuron SA, priority 2016, dated 2022)
pIC50: −log10 of the molar value.

Columns and labels:
[1] = Protein binding in mice plasma using Rapid Equilibrium Dialysis; format: in vitro ADME, CD1 mice; details: male, CD1, mouse, plasma, pH 7.4, CD1 mouse plasma, 37° C.
Method: Example B04: Protein binding in mice plasma using Rapid Equilibrium Dialysis
• CD1 Mice Plasma: pooled male, K2-EDTA ([…]2, Bioreclammation, USA • Phosphate Buffered Saline (1×PBS), pH 7.4, 100 mM (Sigma, Cat No. P4417) • RED inserts (Pierce, Cat No. 9006, 8 kDa MWCO) • Sample Analysis: LC-MS/MS Methods • Preparation of DMSO Stock Solution
From 20 mM DMSO stock solutions of reference and test compounds, 1 mM DMSO intermediate working solutions are prepared. From 1 mM intermediate working solutions, 100 μM DMSO working solutions are prepared. • Sample Preparation Procedure:
Selected plasma is brought from −20° C. to 37° C. using water bath before its use. Test solution is prepared by adding the DMSO working solution of the reference or test compound (2 μL; 100 μM) to the selected plasma (198 μL). Spiked plasma (200 μl) is transferred to sample compartment of RED insert placed in the teflon plate. 350 μl of 1×PBS is added in the buffer compartment of RED insert. The teflon plate is covered with sealing mat and agitated at 37° C. for 5 hours at 500 RPM in a Thermomixer. After incubation time, an aliquot of plasma (50 μl) from sample compartment is mixed with blank 1×PBS (50 μl). Similarly, an aliquot of buffer (50 μl) from buffer compartment is mixed with blank plasma (50 μl). Quenching solution (200 μL, acetonitrile containing internal standard tolbutamide (0.5 μg/mL)) is added and the resulting solutions are mixed using a vortex mixer and centrifuged (Eppendorf 5415, 13792 g). Supernatants are analyzed using a Mass Spectrometer. The sample (supernatant fraction, 5 μL) is injected into the LC-MS/MS instrument. • Chromatographic Conditions: LC-MS/MS: API 4000 LC-MS/MS Software: Analyst Version 1.6.1 Column Phenomenex Synergy 30*4.6*5μ Column Oven: 40° C. Mode: ESI Positive Injection volume: 5 μl Flow Rate: […] Buffer: 0.1% Formic acid in Water Method: Isocratic Method/Gradient Composition: A) 0.1% Formic acid in Water B) 0.1% Formic acid in Methanol
After the concentration of free drug and total drug has been determined by LCMS/MS, percent plasma protein binding can be calculated as follows:
[formula] Following this protocol, % fraction unbound in plasma from different species can be also measured.

[2] = target: Human O-GlcNAcase (His-Tagged hOGA) (Homo sapiens (Human), UniProt O60502); experiment: Human O-GlcNAcase enzyme inhibition assay; format: biochemical; details: His-Tagged hOGA 20 nM, FL-GlcNAc 10 μM, 60 min, room temperature, pH 6.5; read-out: Enzymatic OGA IC50
Chain of Human O-GlcNAcase (His-Tagged hOGA) (O60502 whole entry): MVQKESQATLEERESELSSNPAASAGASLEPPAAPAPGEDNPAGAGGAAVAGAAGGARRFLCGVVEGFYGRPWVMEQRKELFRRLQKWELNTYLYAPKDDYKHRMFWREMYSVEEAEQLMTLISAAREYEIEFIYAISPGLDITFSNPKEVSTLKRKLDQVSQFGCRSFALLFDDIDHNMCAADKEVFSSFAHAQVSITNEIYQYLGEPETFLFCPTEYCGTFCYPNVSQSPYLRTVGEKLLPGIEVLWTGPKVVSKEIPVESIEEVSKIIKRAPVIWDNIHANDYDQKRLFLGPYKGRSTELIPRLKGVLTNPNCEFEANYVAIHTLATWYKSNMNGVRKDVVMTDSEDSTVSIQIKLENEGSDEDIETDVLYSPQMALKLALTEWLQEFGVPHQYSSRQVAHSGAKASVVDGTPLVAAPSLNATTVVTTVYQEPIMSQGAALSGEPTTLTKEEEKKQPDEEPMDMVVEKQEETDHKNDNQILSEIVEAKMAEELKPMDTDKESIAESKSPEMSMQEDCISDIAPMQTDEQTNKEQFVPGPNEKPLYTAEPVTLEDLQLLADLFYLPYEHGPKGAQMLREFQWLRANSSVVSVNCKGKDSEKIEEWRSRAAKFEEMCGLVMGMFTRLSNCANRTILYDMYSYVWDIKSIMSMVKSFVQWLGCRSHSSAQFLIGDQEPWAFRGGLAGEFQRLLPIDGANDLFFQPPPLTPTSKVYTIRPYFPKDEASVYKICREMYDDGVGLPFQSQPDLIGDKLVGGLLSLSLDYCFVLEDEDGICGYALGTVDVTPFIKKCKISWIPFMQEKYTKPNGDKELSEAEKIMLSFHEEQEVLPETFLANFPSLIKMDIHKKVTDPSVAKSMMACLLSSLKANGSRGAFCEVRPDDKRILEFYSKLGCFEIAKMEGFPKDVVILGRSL
Method: Example B01: Human O-GlcNAcase enzyme inhibition assay
5 μl of the appropriate concentration of a solution of inhibitor in McIlvaine's Buffer (pH 6.5) in 2% DMSO (for a dose response curve calculation) is added into each well of a 384-well plate (Greiner, 781900). Then, 20 nM of His-Tagged hOGA and 10 μM of FL-GlcNAc (Fluorescein mono-beta-D-(2-deoxy-2-N-acetyl) glucopyranoside; Marker Gene Technologies Inc, M1485) were added to the 384-well plate for a final volume of 20 μl. After incubation for 60 min at room temperature, the reaction was terminated by the addition of 10 μL of stop buffer (200 mM glycine, pH 10.75).

| fraction unbound at 5 h, 1 µM [1] | pIC50 [2] | Structure (SMILES) |
| --- | --- | --- |
| 0.0838 | > 7.30 | Cc1nc2cc(C(C)N3CCN(c4ncc(S(C)(=N)=O)cn4)CC3)ccc2s1 (single isomer, unassigned) [Example 51] |
| 0.222 | 6.70 to 7.30 | CC(c1ccc2c(c1)OCCC2)N1CCN(c2ncc(S(C)(=N)=O)cn2)CC1 (racemic) [Example 21, (2-(4-(1-(chroman-7-yl)ethyl)piperazin-1-yl)pyrimidin-5-yl)(imino)(methyl)-λ^6-sulfanone] |
| 0.286 | > 7.30 | COCCN=S(C)(=O)c1cnc(N2CCN(C(C)c3ccc4scnc4c3)CC2)nc1 (racemic) [Example 29, (2-(4-(1-(benzo[d]thiazol-5-yl)ethyl)piperazin-1-yl)pyrimidin-5-yl)((2-methoxyethyl)imino)(methyl)-λ^6-sulfanone] |
| 0.208 | > 7.30 | COCCN=S(C)(=O)c1cnc(N2CCN(C(C)c3ccc4c(c3)OCC4)CC2)nc1 (single isomer, unassigned) [Example 17] |
| 0.0959 | 6.70 to 7.30 | CN=S(C)(=O)c1ccc(N2CCN(C(C)c3ccc4sc(C)nc4c3)CC2)nc1 (racemic) [Example 47, methyl(6-(4-(1-(2-methylbenzo[d]thiazol-5-yl)ethyl)piperazin-1-yl)pyridin-3-yl)(methylimino)-λ^6-sulfanone] |
| 0.134 | > 7.30 | CCCS(=N)(=O)c1cnc(N2CCN(C(C)c3ccc4scnc4c3)CC2)nc1 (racemic) [Example 24, (2-(4-(1-(benzo[d]thiazol-5-yl)ethyl)piperazin-1-yl)pyrimidin-5-yl)(imino)(propyl)-λ^6-sulfanone] |
| 0.139 | > 7.30 | CC(c1ccc2c(c1)OCC2)N1CCN(c2ncc(C(=O)N=S(C)(C)=O)cn2)CC1 (racemic) [Example 10, 2-(4-(1-(2,3-dihydrobenzofuran-6-yl)ethyl)piperazin-1-yl)-N-(dimethyl(oxo)-λ^6-sulfanylidene)pyrimidine-5-carboxamide] |
| 0.294 | > 7.30 | CC(c1ccc2c(c1)OCC2)N1CCN(c2ccc(S(C)(=N)=O)cn2)CC1 (racemic) [Example 7, (6-(4-(1-(2,3-dihydrobenzofuran-6-yl)ethyl)piperazin-1-yl)pyridin-3-yl)(imino)(methyl)-Δ^6-sulfanone] |
| 0.115 | > 7.30 | Cc1nc2cc(C(C)N3CCN(c4ccc(S(C)(=N)=O)cn4)CC3)ccc2s1 (racemic) [Example 46, imino(methyl)(6-(4-(1-(2-methylbenzo[d]thiazol-5-yl)ethyl)piperazin-1-yl)pyridin-3-yl)-λ^6-sulfanone] |
| 0.257 | > 7.30 | CC(c1ccc2scnc2c1)N1CCN(c2ncc(S(C)(=N)=O)cn2)CC1 (single isomer, unassigned) [Example 34, (2-(4-((S)-1-(benzo[d]thiazol-5-yl)ethyl)piperazin-1-yl)pyrimidin-5-yl)(imino)(methyl)-λ^6-sulfanone or (2-(4-((R)-1-(benzo[d]thiazol-5-yl)ethyl)piperazin-1-yl)pyrimidin-5-yl)(imino)(methyl)-λ^6-sulfanone] |
| 0.39 | 6.70 to 7.30 | Cc1nc2cc(C(C)N3CCN(c4ncc(S(C)(=N)=O)cn4)CC3)ccc2o1 (racemic) [Example 55, imino(methyl)(2-(4-(1-(2-methylbenzo[d]oxazol-5-yl)ethyl)piperazin-1-yl)pyrimidin-5-yl)-λ^6-sulfanone] |
| 0.142 | > 7.30 | CCCS(=N)(=O)c1cnc(N2CCN(C(C)c3ccc4c(c3)OCC4)CC2)nc1 (racemic) [Example 4, (2-(4-(1-(2,3-dihydrobenzofuran-6-yl)ethyl)piperazin-1-yl)pyrimidin-5-yl)(imino)(propyl)-λ^6-sulfanone] |
| 0.261 | > 7.30 | CCS(=N)(=O)c1ccc(N2CCN(C(C)c3ccc4c(c3)OCC4)CC2)nc1 (racemic) [Example 6, (6-(4-(1-(2,3-dihydrobenzofuran-6-yl)ethyl)piperazin-1-yl)pyridin-3-yl)(ethyl)(imino)-λ^6-sulfanone] |
| – | > 7.30 | CCN=S(C)(=O)c1cnc(N2CCN(C(C)c3ccc4c(c3)OCC4)CC2)nc1 (single isomer, unassigned) [Example 18] |
| – | > 7.30 | Cc1nc2cc(C(C)N3CCN(c4ccc(S(C)(=N)=O)cc4)CC3)ccc2s1 (racemic) [Example 50, imino(methyl)(4-(4-(1-(2-methylbenzo[d]thiazol-5-yl)ethyl)piperazin-1-yl)phenyl)-λ^6-sulfanone] |

More lines, now with the values behind:

| Structure (SMILES) | fraction unbound at 5 h, 1 µM [1] | pIC50 [2] |
| --- | --- | --- |
| CC(c1ccc2c(c1)OCC2)N1CCN(c2ncc(S(C)(=N)=O)cn2)CC1 (racemic) [Example 1, (2-(4-(1-(2,3-dihydrobenzofuran-6-yl)ethyl)piperazin-1-yl)pyrimidin-5-yl)(imino)(methyl)λ^6-sulfanone] | 0.393 | > 7.30 |
| CN=S(C)(=O)c1cnc(N2CCN(C(C)c3ccc4scnc4c3)CC2)nc1 (single isomer, unassigned) [Example 37] | 0.278 | > 7.30 |
| CC(c1ccc2c(c1)OCC2)N1CCN(c2ccc(S(C)(=N)=O)cc2)CC1 (racemic) [Example 11, (4-(4-(1-(2,3-dihydrobenzofuran-6-yl)ethyl)piperazin-1-yl)phenyl)(imino)(methyl)-λ^6-sulfanone] | 0.21 | > 7.30 |
| CC1Cc2ccc(C(C)N3CCN(c4ncc(S(C)(=N)=O)cn4)CC3)cc2O1 (racemic) [Example 2, Imino(methyl)(2-(4-(1-(2-methyl-2,3-dihydrobenzofuran-6-yl)ethyl)piperazin-1-yl)pyrimidin-5-yl)-λ^6-sulfanone] | 0.222 | – |
| Cc1nc2cc(C(C)N3CCN(c4ncc(S(C)(=N)=O)cn4)CC3)ccc2s1 (racemic) [Example 42, Imino(methyl)(2-(4-(1-(2-methylbenzo[d]thiazol-5-yl)ethyl)piperazin-1-yl)pyrimidin-5-yl)-λ^6-sulfanone] | 0.101 | > 7.30 |
| CC(c1ccc2scnc2c1)N1CCN(c2ncc3c(n2)CCS(=N)(=O)C3)CC1 (racemic) [Example 59, 2-(4-(1-(benzo[d]thiazol-5-yl)ethyl)piperazin-1-yl)-6-imino-5,6,7,8-tetrahydro-6λ^4-thiopyrano[4,3-d]pyrimidine 6-oxide] | 0.0848 | > 7.30 |
| CC(c1ccc2scnc2c1)N1CCN(c2ncc(N=S(C)(C)=O)cn2)CC1 (racemic) [Example 31, ((2-(4-(1-(benzo[d]thiazol-5-yl)ethyl)piperazin-1-yl)pyrimidin-5-yl)imino)dimethyl-λ^6-sulfanone] | 0.229 | > 7.30 |
| CC(c1ccc2scnc2c1)N1CCN(c2ccc(S(C)(=N)=O)cc2)CC1 (racemic) [Example 33, (4-(4-(1-(benzo[d]thiazol-5-yl)ethyl)piperazin-1-yl)phenyl)(imino)(methyl)-λ^6-sulfanone] | 0.132 | 6.70 to 7.30 |
| Cc1nc2cc(C(C)N3CCN(c4ncc(S(C)(=N)=O)cn4)CC3)ccc2s1 (single isomer, unassigned) [Example 54] | – | 5.00 to 6.00 |
| Cc1nc2cc(C(C)N3CCN(c4ncc(S(C)(=N)=O)cn4)CC3)ccc2s1 (single isomer, unassigned) [Example 52] | – | 6.00 to 6.70 |
| CC(c1ccc2c(c1)OCC2)N1CCN(c2ncnc3c2CS(=N)(=O)C3)CC1 (stereo not shown) [Example 60, 4-(4-(1-(2,3-dihydrobenzofuran-6-yl)ethyl)piperazin-1-yl)-6-imino-6,7-dihydro-5H-6δ^4-thieno[3,4-d]pyrimidine 6-oxide] | 0.0779 | – |
